Several values for one entry are separate records, joined by “and”; a condition that tells them apart may be missing. Equal entries are not always repeated.
Key:
Format in all cases: physicochemical
[1] = negative dichroism S in a liquid-crystalline mixture; conditions: liquid-crystalline mixture ZK-807
Description: (§1) Table 1 given below lists the values of negative dichroism of the anthraquinone derivative of general formula /1/ for examples 1-30 in a liquid-crystalline mixture ZK-807; Table 2 illustrates physico-chemical characteristics, and Table 3--limiting solubility in liquid-crystalline mixtures (ZK-807, ZLI-1840, 3010, SP-586, ZK-1282) at 20° C.

[2] = limiting solubility in liquid-crystalline mixtures at 20° C.; conditions: for Solubility (limiting), known derivatives: Table 6, derivatives of SU 1089084; for solubility exceeds the solubility of the known analogue: ratio to known derivative, No. 2, 7 and 6 of Table 3 vs No. 1, 5 and 6 of Table 6
[3] = λmax of the long-wave absorption band of the dye; conditions: Table 1 / Examples; several values = several maxima
Description: as §1

Row | Compound | negative dichroism S [1] | Solubility (limiting) ([2]; 3010, 20° C.) [mass %] | Solubility (limiting) ([2]; ZK-807, 20° C.) [mass %] | Solubility (limiting) ([2]; ZK-1282, 20° C.) [mass %] | Solubility (limiting) ([2]; ZLI-1840, 20° C.) [mass %] | λmax [3] | Solubility (limiting) ([2]; SP-586, 20° C.) [mass %] | Solubility (limiting), known derivatives ([2]; ZK-807, 20° C.) [mass %] | Solubility (limiting), known derivatives ([2]; ZLI-1840, 20° C.) [mass %] | solubility exceeds the solubility of the known analogue [2] [times]
1 | CCCCCCCCc1ccc(-c2ccc(C(=O)Nc3ccc(NCCCC)c4c3C(=O)c3ccccc3C4=O)cc2)cc1 [No. 1, Table 6, reference compound] | – | – | – | – | – | – | – | 0.8 | 0.4 | –
2 | CCCCCCC1CCC(C(=O)Nc2ccc(OC(=O)C3CCC(CCCCCC)CC3)c3c2C(=O)c2c(NC(=O)C4CCC(CCCCCC)CC4)cc(C)c(OC(=O)C4CCC(CCCCCC)CC4)c2C3=O)CC1 (stereo not shown) [Compound 5] | -0.37 | 1.0 | 3.0 | – | – | 461 nm | – | – | – | –
3 | CCCCCCCCNc1cc(CCCC)c(NC(=O)c2ccc(-c3ccc(CCCCCCCC)cc3)cc2)c2c1C(=O)c1ccccc1C2=O [Compound 1] | – | – | 2.0 | – | – | – | – | – | – | –
4 | CCCCC[C@H]1CC[C@H](c2ccc(C(=O)Nc3ccc(O)c4c3C(=O)c3c(NC(=O)c5ccc([C@H]6CC[C@H](CCCCC)CC6)cc5)cc(C)c(O)c3C4=O)cc2)CC1 [Compound 27, 1,8-Bis-4-(trans-4-amylcyclohexyl)benzamido-3-methyl-4,5-dioxyanthraquinone] | -0.33 | 1.0 | 1.0 | 1.0 | 1.0 | 562 nm and 603 nm | – | – | – | –
5 | CCCCc1cc(NC(=O)C2CCC(CCCC)CC2)c2c(c1OC(=O)c1ccc(C3CCC(CCCC)CC3)cc1)C(=O)c1c(OC(=O)c3ccc(C4CCC(CCCC)CC4)cc3)c(CCCC)cc(NC(=O)C3CCC(CCCC)CC3)c1C2=O (stereo not shown) [Compound 10] | -0.35 | 9.0 | 10.8 | – | 7.2 | 466 nm | 7.5 | – | – | –
6 | CCCCCCC1CCC(c2ccc(C(=O)Nc3cc(CCCC)c(O)c4c3C(=O)c3c(NC(=O)c5ccc(C6CCC(CCCCCC)CC6)nc5Cl)cc(CCCC)c(OC(=O)c5ccc(C6CCC(CCCCCC)CC6)nc5Cl)c3C4=O)c(Cl)n2)CC1 (stereo not shown) [Compound 20] | -0.33 | 0.75 | 1.2 | – | 0.7 | 534 nm | – | – | – | –
7 | CCCCCC1CCC(c2ccc(C(=O)Nc3cc(CCCC)c(OC(=O)C4CCC(CCCC)CC4)c4c3C(=O)c3c(NC(=O)c5ccc(C6CCC(CCCCC)CC6)cc5)cc(CCCC)c(OC(=O)C5CCC(CCCC)CC5)c3C4=O)cc2)CC1 (stereo not shown) [Compound 9] | -0.38 | 9.0 | 9.0 | – | 7.7 | 475 nm | – | – | – | –
8 | CCCCCC1CCC(c2ccc(C(=O)Nc3cc(CCCC)c(O)c4c3C(=O)c3c(NC(=O)c5ccc(C6CCC(CCCCC)CC6)cc5)cc(CCCC)c(OC(=O)C5CCC(CCCC)CC5)c3C4=O)cc2)CC1 (stereo not shown) [Compound 21] | -0.37 | 3.3 | – | 2.7 | 3.0 | 542 nm | – | – | – | –
9 | CCCCCc1ccc(-c2ccc(C(=O)Nc3ccc(NCCCC)c4c3C(=O)c3ccccc3C4=O)cc2)cc1 [No. 2, Table 6, reference compound] | – | – | – | – | – | – | – | 0.9 | 0.5 | –

The next lines start with the values.

Row | negative dichroism S [1] | Solubility (limiting) ([2]; 3010, 20° C.) [mass %] | Solubility (limiting) ([2]; ZK-807, 20° C.) [mass %] | Solubility (limiting) ([2]; ZK-1282, 20° C.) [mass %] | Solubility (limiting) ([2]; ZLI-1840, 20° C.) [mass %] | λmax [3] | Solubility (limiting) ([2]; SP-586, 20° C.) [mass %] | Solubility (limiting), known derivatives ([2]; ZK-807, 20° C.) [mass %] | Solubility (limiting), known derivatives ([2]; ZLI-1840, 20° C.) [mass %] | solubility exceeds the solubility of the known analogue [2] [times] | Compound
10 | -0.38 | 2.6 | 11.0 | 1.8 | 5.7 | 466 nm | – | – | – | – | CCCCCC1CCC(c2ccc(C(=O)Nc3cc(CCCC)c(OC(=O)c4ccc(C5CCC(CCCCC)CC5)cc4)c4c3C(=O)c3c(NC(=O)c5ccc(C6CCC(CCCCC)CC6)cc5)cc(CCCC)c(OC(=O)c5ccc(C6CCC(CCCCC)CC6)cc5)c3C4=O)cc2)CC1 (stereo not shown) [Compound 8]
11 | -0.38 | 4.8 | – | – | 2.5 | 540 nm | 2.9 | – | – | – | CCCCCC1CCC(c2ccc(C(=O)Nc3cc(CCCC)c(O)c4c3C(=O)c3c(NC(=O)c5ccc(C6CCC(CCCCC)CC6)cc5)cc(CCCC)c(OC(=O)c5ccc(C6CCC(CCCCC)CC6)cc5)c3C4=O)cc2)CC1 (stereo not shown) [Compound 19]
12 | -0.34 | 1.1 | 5.0 | – | 1.0 | 465 nm | 2.0 | – | – | – | CCCCc1ccc(C(=O)Nc2ccc(OC(=O)c3ccc(CCCC)cc3)c3c2C(=O)c2c(NC(=O)c4ccc(CCCC)cc4)cc(C)c(OC(=O)c4ccc(CCCC)cc4)c2C3=O)cc1 [Compound 3, 1,8Bis-(4-butylbenzamido)-4,5-bis-(4-butylbenzoyloxy)-3-methylanthraquinone]
13 | -0.30 | 0.9 | 3.0 | – | 1.0 | 540 nm | – | – | – | – | CCCCCc1cc(NC(=O)c2ccc(CCCC)cc2)c2c(c1O)C(=O)c1c(OC(=O)c3ccc(CCCC)cc3)c(CCCCC)cc(NC(=O)c3ccc(CCCC)cc3)c1C2=O [Compound 25]
14 | -0.38 | 2.0 | 1.1 | 1.5 | 1.4 | 545 nm | 1.2 | – | – | – | CCCCCC1CCC(c2ccc(C(=O)Nc3cc(CCCC)c(O)c4c3C(=O)c3c(NC(=O)c5ccc(C6CCC(CCCCC)CC6)cc5)cc(CCCC)c(OC(=O)CCC)c3C4=O)cc2)CC1 (stereo not shown) [Compound 22]
15 | -0.31 | 0.7 | 2.7 | – | – | 534 nm | – | – | – | – | CCCCc1ccc(C(=O)Nc2cc(CCCC)c(O)c3c2C(=O)c2c(NC(=O)c4ccc(CCCC)cc4)cc(CCCC)c(OC(=O)c4ccc(CCCC)cc4)c2C3=O)cc1 [Compound 18, 1,8-bis-(4-butylbenzamido)-4-(4-butylbenzoyloxy)-3,6-dibutyl-5-oxyanthraquinone]
16 | -0.31 | 1.0 | 2.9 | 0.7 | 1.1 | 542 nm | – | – | – | – | CCCCCCc1ccc(C(=O)Nc2cc(CCCCC)c(O)c3c2C(=O)c2c(NC(=O)c4ccc(CCCCCC)cc4)cc(CCCCC)c(OC(=O)c4ccc(CCCCCC)cc4)c2C3=O)cc1 [Compound 26]
17 | -0.37 | 1.75 | 4.9 | – | 2.1 | 470 nm | – | – | – | – | CCCCc1cc(NC(=O)c2ccc(C3CCC(CCCC)CC3)cc2)c2c(c1OC(=O)CCC)C(=O)c1c(OC(=O)CCC)c(CCCC)cc(NC(=O)c3ccc(C4CCC(CCCC)CC4)cc3)c1C2=O (stereo not shown) [Compound 13]
18 | -0.34 | – | – | – | – | 566 nm and 608 nm | – | – | – | – | CCCCc1cc(NC(=O)c2ccc(C3CCC(CCCC)CC3)cc2)c2c(c1O)C(=O)c1c(O)c(CCCC)cc(NC(=O)c3ccc(C4CCC(CCCC)CC4)cc3)c1C2=O (stereo not shown) [Compound 30]
19 | -0.22 | – | 4.0 | – | 3.6 | 475 nm | 2.9 | – | – | 2.5 | CCCCc1ccc(C(=O)Nc2cc(CCCC)c(NC(=O)c3ccc(CCCC)cc3)c3c2C(=O)c2ccccc2C3=O)cc1 [Compound 2, 1,4-Bis(4-butylbenzamido)-2-butylanthraquinone]
20 | -0.33 | 4.6 | 9.0 | 4.0 | – | 468 nm | 4.0 | – | – | 18 | CCCCc1ccc(C(=O)Nc2cc(CCCC)c(OC(=O)c3ccc(CCCC)cc3)c3c2C(=O)c2c(NC(=O)c4ccc(CCCC)cc4)cc(CCCC)c(OC(=O)c4ccc(CCCC)cc4)c2C3=O)cc1 [Compound 6, 1,8-Bis-(4-butylbenzamido)-4,5-bis-(4.butylbenzoyloxy)-3,6-dibutylanthraquinone]
21 | -0.36 | 2.0 | 1.7 | – | 2.6 | 542 nm | – | – | – | – | CCCCc1cc(NC(=O)c2ccc(C3CCC(CCCC)CC3)cc2)c2c(c1O)C(=O)c1c(OC(=O)CCC)c(CCCC)cc(NC(=O)c3ccc(C4CCC(CCCC)CC4)cc3)c1C2=O (stereo not shown) [Compound 23]
22 | -0.32 | 1.0 | 1.0 | 1.0 | 1.0 | 563 nm and 606 nm | – | – | – | – | CCCCC[C@H]1CC[C@H](c2ccc(C(=O)Nc3cc(CCCC)c(O)c4c3C(=O)c3c(NC(=O)c5ccc([C@H]6CC[C@H](CCCCC)CC6)cc5)cc(CCCC)c(O)c3C4=O)cc2)CC1 [Compound 29, 1,8-Bis-4-(trans-4-amylcyclohexyl)benzamido-3,6-dibutyl-4,5-dioxyanthraquinone]
23 | -0.36 | 3.0 | 1.0 | – | 1.5 | 468 nm | 1.9 | – | – | – | CCCCCC1CCC(c2ccc(C(=O)Nc3ccc(OC(=O)c4ccc(C5CCC(CCCCC)CC5)cc4)c4c3C(=O)c3c(NC(=O)c5ccc(C6CCC(CCCCC)CC6)cc5)cc(C)c(OC(=O)c5ccc(C6CCC(CCCCC)CC6)cc5)c3C4=O)cc2)CC1 (stereo not shown) [Compound 4]
